{
  "source": "patent US9339508B2",
  "about": "“Use of 3-methoxy-pregnenolone for the preparation of a drug for treating a traumatic brain injury” (MAPREG, priority 2003, dated 2016)",
  "key": {"CHI traumatized rats": {"test_system": "CHI traumatized rats", "assay": "MRI of ventricular dilatation after Closed Head Injury (CHI)", "assay_type": "in vivo, rat", "details": "day 28 post-trauma, 20 mg/kg starting 24 hours post-trauma, compared to the vehicle", "excerpt": "The model “Closed Head Injury” (CHI), also commonly known as “weight-drop”, “impact-acceleration” or Marmarou model, allows the induction of TBI on a closed skull and generates diffuse axonal injuries (Holtzer et al 2001). After anesthesia induction, the scalp was incised, a piece of metal (diameter 10 mm, height 3 mm)—designed to protect against skull fracture—was glued to the skull, between the lambda and bregma. The animal was then placed on a foam bed and a cylindrical metallic 230-g weight was dropped from 2 m through a metal tubing onto the disk. At the very moment of the impact, the head of the animal plunged briefly in the foam bed, which leads to an acceleration/deceleration of the brain inside the skull.\nTo determine lateral ventricle preservation, as well as lesion size (in the CCI model), T2-weighted MRI was performed 28 days after injury (D28). Acquisition was performed on a 7T Bruker AVANCE BIOSPEC—horizontal magnet, with rapid acquisition and relaxation enhancement (RARE).\nMRI imaging of rats was performed at day 28 post-trauma. Based on MRI imaging, ventricular dilatation induced by CHI trauma was analyzed in CHI traumatized rats injected from 24 hours post-trauma with sesame oil (CHI-D0), or 3-methoxy-PREG (MAP4343) at 10 mg/kg (CHI-D1) or 20 mg/kg (CHI-D2)."}, "[1]": {"test_system": "transgenic mice expressing the longest isoform of human tau protein", "assay": "RotaRod motor incoordination in transgenic tau mice", "assay_type": "in vivo, mouse", "details": "subcutaneous implant releasing 0.38 mg per day for 90 days", "excerpt": "FIG. 8: Effect of molecule 43B on the motor incoordination of transgenic mice expressing the longest isoform of human tau protein in their neurons. […] The maximum speed of rotation of the RotaRod drum before the […] falls is a measurement of motor coordination (higher values correspond to a better treatment effect).\nIn order to evaluate the therapeutic potential of 433 to treat Alzheimer-type neurodegenerative diseases, a homozygous transgenic line of mice, such as described by Götz (EMBO J. 1995; 14(7):1304-13), can be used.\nThese mice express the longest human tau protein isoform. They present symptoms of neurological dysfunction expressed as muscular weakness and a reduction in motor coordination which correlate histologically with the appearance of abnormal neurites and hyperphosphorylated tau proteins as is seen in Alzheimer's disease. This pathological phosphorylation decreases the affinity of tau for microtubules and favors its aggregation.\nA breeding program was undertaken at Bicêtre and genotyping made it possible to select mice homozygous for the transgene. […] The implants released 0.38 mg of steroid per day for 90 days. The progression of motor incoordination was followed by repeated RotaRod tests."}, "PC12 cells": {"test_system": "PC12 cells", "assay": "Neuritic growth / sprouting of PC12 cells in the presence of NGF", "assay_type": "cell-based, rat", "details": "increasing concentrations, 2, 5 and 8 days of culture, NGF 10 ng/ml", "experimental": "Each molecule was tested in three culture wells. Measurements were taken for 200 cells per well using Scion Image software.\nNeurite (neurite) length was measured for 200 cells per well after 2, 5, and 8 days of culture.\nTo rest the effect of selected molecules on neuritic growth, we first used the PC12 line, which has long been employed in neurobiological research. In the presence of NOF (nerve growth factor), the cells of this line, which arise from a rat pheochromocytoma, form neuritic extensions containing MAP-associated microtubules.\nStimulation of neuritic sprouting is conducted on PC12 cells differentiated in the presence of NGF (10 ng/ml) and the steroid being tested (30 μM) for 3 days. For each condition, the average length of the longest 200 neurites in each cell is measured simultaneously for 3 cultures."}, "[2]": {"assay": "Pharmacokinetics by GC/MS, brain and spinal cord", "assay_type": "in vivo, rat", "details": "12 mg/kg subcutaneous in sesame oil; 1, 4, 8, 24 hours", "experimental": "FIG. 9: Kinetics of the appearance of 3-methoxy-PREG (43B) in rat brain and spinal cord following subcutaneous injection of 43B (12 mg/kg) in a sesame oil solution.\nThe pharmacokinetics of the molecules tested in vivo are evaluated using gas chromatography/mass spectrometry (GC/MS) assays."}, "GFAP": {"test_system": "GFAP", "assay": "GFAP immunohistochemistry after Lateral Fluid Percussion (LFP)", "assay_type": "in vivo, rat", "excerpt": "After anesthesia induction, the animal was placed on a stereotaxic frame. To expose the dura mater, craniotomy (diameter 5 mm) was under the left parietal cortex (−3.6 mm from Bregma, −3.0 mm from midline). A female Luer-Lock was placed over the craniotomy and was secured to the parietal bone with dental cement. The Luer-Lock was then filled with isotonic saline to create an interface with the dura meter.\nTrauma was induced by a fluid percussion device (Custom Design and Manufacturing, United. Kingdom) (Besson et al., 2003) it is a cylindrical tank (60 cm long), with a piston on one side, over which a hammer exercises a constraint, and a male Luer-Lock on the other side. […] The amplitude of each shock wave was measured via a pressure transducer connected to the terminal portion of the device. The pressure signal was recorded on an oscilloscope. […]\nAfter mounting on Superfrost slides, frozen sections were dried for 90 minutes at room temperature and stored at −80° C. until use. […] Immunostaining was quantitatively assessed by optical density measurements directly from the section image (Image J). […]\nGFAP expression was measured by immunohistochemistry at day 35 post-trauma in injured and uninjured cortex, thalamus and hippocampus of LFP traumatized, rats treated with vehicle (sesame oil), or 3-methoxy-PREG (MAP4343) at 10 mg/kg or 20 mg/kg, with first injection at 2 hours post-trauma."}},
  "data": [
    {"smiles": "CO[C@H]1CC[C@@]2(C)C(=CC[C@H]3[C@@H]4CC[C@H](C(C)=O)[C@@]4(C)CC[C@@H]32)C1", "note": "[3-methoxy-PREG, 3β-methoxy-pregna-5-ene-20-one]", "values": [
      {"measurement": "ventricular dilatation", "setting": "CHI traumatized rats", "value": "significantly decreases the ventricular dilatation"},
      {"measurement": "motor dysfunction (RotaRod)", "setting": "[1]", "value": "beneficial effect on motor dysfunction"},
      {"measurement": "increase in the length of neurites", "setting": "PC12 cells", "value": "≤ 500", "unit": "%"},
      {"measurement": "penetration into spinal cord and brain", "setting": "[2]", "value": "penetrates rapidly into the spinal cord and the brain"},
      {"measurement": "astrocytes GFAP immunoreactivity in the injured cortex", "setting": "GFAP; day 35, 10 mg/kg or 20 mg/kg, first injection 2 hours post-trauma", "value": "highly decreased"},
      {"measurement": "astrocytes immunoreactivity in the injured thalamus", "setting": "GFAP; day 35, especially Dose2 (20 mg/kg)", "value": "strongly decreases astrocytes immunoreactivity"}
    ]}
  ]
}
